This passage reports IC50 results from patent US4119717A, “16-S-acyl derivatives of fusidic acid” (Leo Pharmaceutical Products Ltd. A/S Lovens Kemiske Fabrik, priority 1976, dated 1978).

Common to all, as to assay: Antibacterial activity, concentration required for 50% inhibition
Holding throughout (type): cell-based

Experiment [1] relates to Bacteroides fragilis Leo JA 2. As to conditions: LEOJA2. The text has this:
(§1) Now, however, it has been found, that the compounds of the present invention both in vitro and in vivo show interesting antimicrobial and pharmacokinetic properties. Thereby the compounds of the invention can be used in the treatment of bacterial infections in humans and animals.

The test system of experiment [2] is Staph.aureus Leo CC 178 A. As to conditions: Staphylococcus aureus, LEOCC178A.
Source text: as §1

Experiment [3] relates to Staph.aureus Leo CC 178 B. As to conditions: Staphylococcus aureus, LEOCC178B.
Source text: as §1

The subject of experiment [4] is Strep.pyogenes Leo EC. As to conditions: Streptococcus pyogenes.
Source text: as §1

Experiment [5] deals with Strep.sp. Leo EG 2.
Source text: as §1

In general, IC50 refers to the concentration that gives 50% inhibition. A higher IC50 goes with weaker potency in that assay.

≈ marks a conversion by molar mass, not a printed value.

In the case of `CC(=O)S[C@H]1C[C@@]2(C)[C@@H](C[C@@H](O)[C@H]3[C@@]4(C)CC[C@@H](O)[C@@H](C)[C@@H]4CC[C@@]32C)/C1=C(\CCC=C(C)C)C(=O)O` [Example 1, 16-Deacetoxy-16β-(acetylthio)fusidic acid], the IC50 in experiment [1] came out at 0.79 µg/mL (≈ 1.48 µM); in experiment [2], 6.3 µg/mL (≈ 11.8 µM); in experiment [3], 0.01 µg/mL (≈ 0.0188 µM); in experiment [4], 0.2 µg/mL (≈ 0.375 µM); in experiment [5] it was 0.2 µg/mL (≈ 0.375 µM).

Consider `CC(=O)S[C@H]1C[C@@]2(C)[C@@H](C[C@@H](O)[C@H]3[C@@]4(C)CC[C@@H](O)[C@@H](C)[C@@H]4CC[C@@]32C)/C1=C(\CCCC(C)C)C(=O)O` [Example 3, 16-Deacetoxy-16β-acetylthio-24,25-dihydrofusidic acid], for which the half-inhibitory concentration (IC50) in experiment [1] worked out at 0.5 µg/mL (≈ 0.935 µM); in experiment [2], 3.2 µg/mL (≈ 5.98 µM); in experiment [3] it was 0.008 µg/mL (≈ 0.015 µM); in experiment [4] it was 0.16 µg/mL (≈ 0.299 µM); in experiment [5] it was 0.25 µg/mL (≈ 0.467 µM).

For `CC(C)CCC/C(C(=O)O)=C1/[C@@H](SC(=O)c2ccccc2)C[C@@]2(C)[C@H]1C[C@@H](O)[C@H]1[C@@]3(C)CC[C@@H](O)[C@@H](C)[C@@H]3CC[C@@]12C` [Example 4, 16-Deacetoxy-16β-benzoylthio-24,25-dihydrofusidic acid], the IC50 in experiment [1] amounted to 1.6 µg/mL (≈ 2.68 µM); in experiment [2], 1.6 µg/mL (≈ 2.68 µM); in experiment [3], 0.5 µg/mL (≈ 0.838 µM); in experiment [4], 0.2 µg/mL (≈ 0.335 µM); in experiment [5], 0.63 µg/mL (≈ 1.06 µM).

With `CC(=O)S[C@H]1C[C@@]2(C)[C@@H](CC(=O)[C@H]3[C@@]4(C)CC[C@@H](O)[C@@H](C)[C@@H]4CC[C@@]32C)/C1=C(\CCC=C(C)C)C(=O)O` [Example 7, 11-keto-16-deacetoxy-16β-(acetylthio)fusidic acid], the IC50 in experiment [1] worked out at 2 µg/mL (≈ 3.77 µM); in experiment [2] it was 20 µg/mL (≈ 37.7 µM); in experiment [3] it was 0.02 µg/mL (≈ 0.0377 µM); in experiment [4] it was 1 µg/mL (≈ 1.88 µM); in experiment [5], 2 µg/mL (≈ 3.77 µM).

On to `CC(=O)S[C@H]1C[C@@]2(C)[C@@H](CC(=O)[C@H]3[C@@]4(C)CC[C@@H](O)[C@@H](C)[C@@H]4CC[C@@]32C)/C1=C(\CCCC(C)C)C(=O)O` [Example 8], for which the IC50 in experiment [1] was 2 µg/mL (≈ 3.75 µM); in experiment [2] it was 16 µg/mL (≈ 30 µM); in experiment [3] it was 0.02 µg/mL (≈ 0.0375 µM); in experiment [4], 1 µg/mL (≈ 1.88 µM); in experiment [5], 2 µg/mL (≈ 3.75 µM).

On to `CC(=O)S[C@H]1C[C@@]2(C)[C@@H](C[C@@H](O)[C@H]3[C@@]4(C)CC[C@H](Br)[C@@H](C)[C@@H]4CC[C@@]32C)/C1=C(\CCC=C(C)C)C(=O)O` [Example 21, 3-Deoxy-3β-bromo-16-deacetoxy-16β-(acetylthio)fusidic acid], for which the IC50 was 3.2 µg/mL (≈ 5.37 µM) in experiment [1]; 4 µg/mL (≈ 6.71 µM) in experiment [2]; 0.13 µg/mL (≈ 0.218 µM) in experiment [3]; 0.32 µg/mL (≈ 0.537 µM) in experiment [4]; 1 µg/mL (≈ 1.68 µM) in experiment [5].

Regarding `CC(=O)S[C@H]1C[C@@]2(C)[C@@H](C[C@@H](O)[C@H]3[C@@]4(C)CC[C@H](Br)[C@@H](C)[C@@H]4CC[C@@]32C)/C1=C(\CCCC(C)C)C(=O)O` [Example 22, 3-deoxy-3β-bromo-16-deacetoxy-16β-acetylthio-24,25-dihydrofusidic acid], the IC50 in experiment [1] worked out at 2 µg/mL (≈ 3.35 µM); in experiment [2] it was 1.6 µg/mL (≈ 2.68 µM); in experiment [3], 0.079 µg/mL (≈ 0.132 µM); in experiment [4] it was 0.79 µg/mL (≈ 1.32 µM); in experiment [5], 1.6 µg/mL (≈ 2.68 µM).

For the compound `CC(=O)S[C@H]1C[C@@]2(C)[C@@H](C[C@@H](O)[C@H]3[C@@]4(C)CC[C@H](N=[N+]=[N-])[C@@H](C)[C@@H]4CC[C@@]32C)/C1=C(\CCCC(C)C)C(=O)O` [Example 28], the 50% inhibitory concentration (IC50) in experiment [1] is 1.6 µg/mL (≈ 2.86 µM); in experiment [2] it was 2 µg/mL (≈ 3.57 µM); in experiment [3] it was 1.6 µg/mL (≈ 2.86 µM); in experiment [4] it was 0.63 µg/mL (≈ 1.13 µM); in experiment [5], 0.63 µg/mL (≈ 1.13 µM).

`CC(=O)S[C@H]1C[C@@]2(C)[C@@H](C[C@@H](O)[C@H]3[C@@]4(C)CC[C@H](Cl)[C@@H](C)[C@@H]4CC[C@@]32C)/C1=C(\CCC=C(C)C)C(=O)O` [Example 29]: the IC50 in experiment [1] was found to be 1.3 µg/mL (≈ 2.36 µM); in experiment [2], 2 µg/mL (≈ 3.63 µM); in experiment [3], 0.5 µg/mL (≈ 0.907 µM); in experiment [4], 0.63 µg/mL (≈ 1.14 µM); in experiment [5] it was 1.6 µg/mL (≈ 2.9 µM).

In the case of `CC(=O)S[C@H]1C[C@@]2(C)[C@@H](C[C@@H](O)[C@H]3[C@@]4(C)CC[C@@H](N=[N+]=[N-])[C@@H](C)[C@@H]4CC[C@@]32C)/C1=C(\CCCC(C)C)C(=O)O` [Example 36, 3-Deoxy-3α-azido-16-deacetoxy-16β-acetylthio-24,25-dihydrofusidic acid], the IC50 in experiment [1] was found to be 5 µg/mL (≈ 8.93 µM); in experiment [2] it was 5 µg/mL (≈ 8.93 µM); in experiment [3], 0.063 µg/mL (≈ 0.113 µM); in experiment [4], 0.4 µg/mL (≈ 0.715 µM); in experiment [5], 2 µg/mL (≈ 3.57 µM).

As to `CC(=O)O[C@H]1C[C@@]2(C)[C@@H](C[C@@H](O)[C@H]3[C@@]4(C)CC[C@@H](O)[C@@H](C)[C@@H]4CC[C@@]32C)/C1=C(\CCC=C(C)C)C(=O)O` [Fusidic acid], the IC50 was found to be 1.6 µg/mL (≈ 3.1 µM) in experiment [1]; 16 µg/mL (≈ 31 µM) in experiment [2]; 0.025 µg/mL (≈ 0.0484 µM) in experiment [3]; 0.63 µg/mL (≈ 1.22 µM) in experiment [4]; 1.6 µg/mL (≈ 3.1 µM) in experiment [5].
